Data published in patent publication US20240174690A1, “ANNULATED 2-AMINO-3-CYANO THIOPHENES AND DERIVATIVES FOR THE TREATMENT OF CANCER” (BOEHRINGER INGELHEIM INTERNATIONAL GMBH, priority 2021, published 2024).
pIC50: −log10 of the molar value. ≈ marks a conversion by molar mass, not a printed value. Like-named read-outs stand apart in the source and are kept apart here.

Legend:
NCI-H358 cells = assay: NCI-H358 CTG proliferation assay (120 h) (NSCLC, G12C); format: cell-based, human; conditions: Homo sapiens
How it was run: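 NCI-H358 cells (KRAS G12C) were seeded at 2000/well (assay 1) or 200/well (assay 2) in RPMI-1640 + 10% FCS and dosed with a logarithmic series, DMSO-normalized. After 120 h, viability was read by CellTiter-Glo luminescence as percent of DMSO control, with a T0 read at dosing. IC50 came from a four-parameter fit.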

LOVO cells = assay: LOVO CTG proliferation assay (120 h) (CRC, G13D); format: cell-based; conditions: Homo sapiens, CTG 120 h
How it was run: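 LOVO cells, 1000 per well in DMEM + 10% FCS, were plated overnight and then dosed with compound from DMSO stock. After 120 h at 37 °C, viability was read by CellTiter-Glo luminescence as a percentage of DMSO controls. IC50 was derived by four-parameter non-linear regression.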

[1] = Solubility measurement (DMSO solution method), McIlvaine buffer pH 4.5 or 6.8; format: physicochemical; conditions: aqueous buffer, kinetic from dmso stock, DMSO stock diluted to 250 μM, 24 h shaking at ambient temperature
How it was run: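 DMSO stock diluted into McIlvaine buffer, pH 4.5 or 6.8, to 250 µM final, shaken 24 h at ambient temperature. Precipitate removed by filtration; filtrate quantified by LC-UV against a fully dissolved reference in acetonitrile/water 1:1.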

[2] = assay 2, CTG, read-out: H358 (assay 2) IC50
[3] = McIlvaine buffer pH 4.5, read-out: solubility pH 4.5
[4] = McIlvaine buffer pH 6.8, read-out: solubility pH 6.8

C[C@H](Oc1cc(N2CCNC[C@]23CCOC3)nc(-c2onc3c2CCC[C@@]32CCCc3sc(N)c(C#N)c32)n1)[C@@H]1CCCN1C [I-12]
pIC50 (NCI-H358 cells; [2]): 5.51 | pIC50 (LOVO cells): 6.08 | solubility at 24 h [1, 3]: > 152 µg/mL | solubility at 24 h [1, 4]: 125 µg/mL (≈ 198 µM)

C[C@H](Oc1cc(N2CCNC[C@@]23CCOC3)nc(-c2onc3c2CCC[C@@]32CCCc3sc(N)c(C#N)c32)n1)[C@@H]1CCCN1C [I-13]
pIC50 (NCI-H358 cells; [2]): 5.37 | pIC50 (LOVO cells): 5.82 | solubility at 24 h [1, 3]: > 148 µg/mL | solubility at 24 h [1, 4]: > 150 µg/mL

C[C@H](Oc1cc(-n2cncc3ccnc2-3)nc(-c2onc3c2CCC[C@@]32CCCc3sc(N)c(C#N)c32)n1)[C@@H]1CCCN1C [I-14]
pIC50 (LOVO cells): 5.87 | solubility at 24 h [1, 3]: 41 µg/mL (≈ 67.5 µM) | solubility at 24 h [1, 4]: < 1 µg/mL

C[C@H]1CNCCCN1c1nc(-c2onc3c2CCC[C@@]32CCCc3sc(N)c(C#N)c32)cc(C(F)(F)F)n1 [I-15]
solubility at 24 h [1, 3]: 1 µg/mL (≈ 1.84 µM) | solubility at 24 h [1, 4]: < 1 µg/mL

C[C@H](Oc1cc(-c2cn(C)nn2)nc(-c2onc3c2CCC[C@@]32CCCc3sc(N)c(C#N)c32)n1)[C@@H]1CCCN1C [I-16]
pIC50 (NCI-H358 cells; [2]): 6.69 | solubility at 24 h [1, 3]: > 118 µg/mL | solubility at 24 h [1, 4]: 82 µg/mL (≈ 143 µM)

CO[C@@H]1C[C@@H]([C@H](C)Oc2cc(-c3cnn(C)n3)nc(-c3onc4c3CCC[C@@]43CCCc4sc(N)c(C#N)c43)n2)N(C)C1 [I-17]
pIC50 (LOVO cells): 6.14

C[C@H](Oc1cc(-n2cncn2)nc(-c2onc3c2CCC[C@@]32CCCc3sc(N)c(C#N)c32)n1)[C@@H]1CCCN1C [I-18]
pIC50 (NCI-H358 cells; [2]): 6.75 | pIC50 (LOVO cells): 6.59 | solubility at 24 h [1, 3]: > 121 µg/mL | solubility at 24 h [1, 4]: 91 µg/mL (≈ 163 µM)

C[C@H](Oc1cc(N2Cc3cnn(C)c3C2)nc(-c2onc3c2CCC[C@@]32CCCc3sc(N)c(C#N)c32)n1)[C@@H]1CCCN1C [I-19]
pIC50 (NCI-H358 cells; [2]): 5.67 | pIC50 (LOVO cells): 6.32 | solubility at 24 h [1, 3]: 48 µg/mL (≈ 78.5 µM) | solubility at 24 h [1, 4]: 14 µg/mL (≈ 22.9 µM)

C[C@H](Oc1cc(-n2cc(-c3cncs3)nn2)nc(-c2noc3c2CCC[C@@]32CCCc3sc(N)c(C#N)c32)n1)[C@@H]1CCCN1C [II-125]
pIC50 (NCI-H358 cells; [2]): 6.59 | pIC50 (LOVO cells): 7.01 | solubility at 24 h [1, 3]: < 1 µg/mL | solubility at 24 h [1, 4]: < 1 µg/mL

C[C@H](Oc1cc(-n2cnc(C(=O)N(C)C)c2)nc(-c2noc3c2CCC[C@@]32CCCc3sc(N)c(C#N)c32)n1)[C@@H]1CCCN1C [II-126]
pIC50 (NCI-H358 cells; [2]): 5.77 | pIC50 (LOVO cells): 6.60 | solubility at 24 h [1, 3]: 123 µg/mL (≈ 196 µM) | solubility at 24 h [1, 4]: 104 µg/mL (≈ 166 µM)

C[C@H](Oc1cc(-c2ccn([C@H]3CCOC3)n2)nc(-c2noc3c2CCC[C@@]32CCCc3sc(N)c(C#N)c32)n1)[C@@H]1CCCN1C [II-127]
pIC50 (NCI-H358 cells; [2]): 6.40 | pIC50 (LOVO cells): 6.88 | solubility at 24 h [1, 3]: > 127 µg/mL | solubility at 24 h [1, 4]: 39 µg/mL (≈ 62.2 µM)

C[C@H](Oc1cc(-c2ccn(Cc3ncco3)n2)nc(-c2noc3c2CCC[C@@]32CCCc3sc(N)c(C#N)c32)n1)[C@@H]1CCCN1C [II-128]
pIC50 (NCI-H358 cells; [2]): 6.38 | pIC50 (LOVO cells): 7.04 | solubility at 24 h [1, 3]: > 130 µg/mL | solubility at 24 h [1, 4]: 42 µg/mL (≈ 65.9 µM)

C[C@H](Oc1cc(-c2ccn(C[C@H]3CCOC3)n2)nc(-c2noc3c2CCC[C@@]32CCCc3sc(N)c(C#N)c32)n1)[C@@H]1CCCN1C [II-129]
pIC50 (NCI-H358 cells; [2]): 6.53 | pIC50 (LOVO cells): 7.16 | solubility at 24 h [1, 3]: > 130 µg/mL | solubility at 24 h [1, 4]: 15 µg/mL (≈ 23.4 µM)

C[C@H](Oc1cc(-n2ccc(-c3cnccn3)n2)nc(-c2noc3c2CCC[C@@]32CCCc3sc(N)c(C#N)c32)n1)[C@@H]1CCCN1C [II-130]
pIC50 (NCI-H358 cells; assay 1, CTG, read-out: H358 (assay 1) IC50): 7.60 | pIC50 (NCI-H358 cells; [2]): 7.55 | pIC50 (LOVO cells): 6.72 | solubility at 24 h [1, 3]: < 1 µg/mL | solubility at 24 h [1, 4]: < 1 µg/mL

C[C@H](Oc1cc(-n2nccc2-c2ccncc2)nc(-c2noc3c2CCC[C@@]32CCCc3sc(N)c(C#N)c32)n1)[C@@H]1CCCN1C [II-131]
pIC50 (NCI-H358 cells; [2]): 6.56 | pIC50 (LOVO cells): 6.65

C[C@H](O)Cn1ncc(-c2cc(O[C@@H](C)[C@@H]3CCCN3C)nc(-c3noc4c3CCC[C@@]43CCCc4sc(N)c(C#N)c43)n2)n1 [II-134]
pIC50 (LOVO cells): 5.49 | solubility at 24 h [1, 3]: 116 µg/mL (≈ 188 µM) | solubility at 24 h [1, 4]: 105 µg/mL (≈ 171 µM)

C[C@H](Oc1cc(-n2cc3c(n2)CCN(C)C3)nc(-c2noc3c2CCC[C@@]32CCCc3sc(N)c(C#N)c32)n1)[C@@H]1CCCN1C [II-141]
pIC50 (LOVO cells): 6.55 | solubility at 24 h [1, 3]: 123 µg/mL (≈ 197 µM) | solubility at 24 h [1, 4]: 83 µg/mL (≈ 133 µM)

C[C@H](Oc1cc(-c2ccn(C)n2)nc(-c2noc3c2CCC[C@@]32CCCc3sc(N)c(C#N)c32)n1)[C@@H]1C[C@H](F)CN1C [II-144]
pIC50 (LOVO cells): 5.55 | solubility at 24 h [1, 3]: 105 µg/mL (≈ 178 µM) | solubility at 24 h [1, 4]: < 1 µg/mL

C[C@H](Oc1cc(N2CCN(C)C3(COC3)C2)nc(-c2noc3c2CCC[C@@]32CCCc3sc(N)c(C#N)c32)n1)[C@@H]1C[C@@H](F)CN1C [II-148]
pIC50 (LOVO cells): 6.96 | solubility at 24 h [1, 3]: > 146 µg/mL | solubility at 24 h [1, 4]: < 1 µg/mL

C[C@H](Oc1cc(N2CCN(C)C3(CC3)C2)nc(-c2noc3c2CCC[C@@]32CCCc3sc(N)c(C#N)c32)n1)[C@@H]1C[C@@H](F)CN1C [II-149]
pIC50 (LOVO cells): 6.57 | solubility at 24 h [1, 3]: > 164 µg/mL | solubility at 24 h [1, 4]: < 1 µg/mL

C[C@H](Oc1cc(N2CCN(C)C3(CCOC3)C2)nc(-c2noc3c2CCC[C@@]32CCCc3sc(N)c(C#N)c32)n1)[C@@H]1C[C@@H](F)CN1C (stereo partly shown) [II-151]
pIC50 (LOVO cells): 5.97 | solubility at 24 h [1, 3]: > 161 µg/mL | solubility at 24 h [1, 4]: < 1 µg/mL

C[C@H](Oc1cc(N2CC3COCC(C2)N3)nc(-c2noc3c2CCC[C@@]32CCCc3sc(N)c(C#N)c32)n1)[C@@H]1CCCN1C [II-160]
pIC50 (LOVO cells): 5.12

C[C@@H]1CN(c2cc(O[C@@H](C)[C@@H]3CCCN3C)nc(-c3noc4c3CCC[C@@]43CCCc4sc(N)c(C#N)c43)n2)CCN1 [II-161]
pIC50 (LOVO cells): 6.33

C[C@H](Oc1cc(N2CCN[C@@H](C)C2)nc(-c2noc3c2CCC[C@@]32CCCc3sc(N)c(C#N)c32)n1)[C@@H]1CCCN1C [II-162]
pIC50 (LOVO cells): 6.40 | solubility at 24 h [1, 3]: > 140 µg/mL | solubility at 24 h [1, 4]: > 137 µg/mL

C[C@H](Oc1cc([C@H]2CCNC2)nc(-c2noc3c2CCC[C@@]32CCCc3sc(N)c(C#N)c32)n1)[C@@H]1CCCN1C [II-163]
pIC50 (LOVO cells): 5.96 | solubility at 24 h [1, 3]: > 137 µg/mL | solubility at 24 h [1, 4]: > 133 µg/mL

CC(C)[C@@H]1CN(c2cc(O[C@@H](C)[C@@H]3CCCN3C)nc(-c3noc4c3CCC[C@@]43CCCc4sc(N)c(C#N)c43)n2)CCN1 [II-166]
pIC50 (LOVO cells): 6.06 | solubility at 24 h [1, 3]: > 152 µg/mL | solubility at 24 h [1, 4]: > 147 µg/mL

C[C@H](Oc1cc(N2C[C@@H]3[C@@H](N)[C@@H]3C2)nc(-c2noc3c2CCC[C@@]32CCCc3sc(N)c(C#N)c32)n1)[C@@H]1CCCN1C [II-167]
pIC50 (LOVO cells): 5.19 | solubility at 24 h [1, 3]: > 153 µg/mL | solubility at 24 h [1, 4]: > 142 µg/mL

C[C@H](Oc1cc(-n2cc3c(n2)CNC3)nc(-c2noc3c2CCC[C@@]32CCCc3sc(N)c(C#N)c32)n1)[C@@H]1CCCN1C [II-168]
pIC50 (LOVO cells): 6.71 | solubility at 24 h [1, 3]: > 139 µg/mL | solubility at 24 h [1, 4]: > 128 µg/mL

C[C@H](Oc1cc(N2CCN(C)C3(CC3)C2)nc(-c2noc3c2CCC[C@@]32CCCc3sc(N)c(C#N)c32)n1)[C@@H]1CCCN1C [II-171]
pIC50 (LOVO cells): 6.23 | solubility at 24 h [1, 3]: > 150 µg/mL | solubility at 24 h [1, 4]: > 148 µg/mL

C[C@H](Oc1cc(N2C[C@H](C)N(C)[C@@H](C)C2)nc(-c2noc3c2CCC[C@@]32CCCc3sc(N)c(C#N)c32)n1)[C@@H]1CCCN1C [II-173]
pIC50 (LOVO cells): 5.91 | solubility at 24 h [1, 3]: > 144 µg/mL | solubility at 24 h [1, 4]: > 146 µg/mL

CO[C@H]1CCN(C)[C@@H]1[C@H](C)Oc1cc(-n2ccc(CC(=O)NC(C)C)n2)nc(-c2noc3c2CCC[C@@]32CCCc3sc(N)c(C#N)c32)n1 [II-183]
pIC50 (LOVO cells): 8.05 | solubility at 24 h [1, 3]: 113 µg/mL (≈ 165 µM) | solubility at 24 h [1, 4]: 4 µg/mL (≈ 5.83 µM)

C[C@H](Oc1cc(-n2cc3ccn([C@@H](C)c4ccccn4)c(=O)c3n2)nc(-c2noc3c2CCC[C@@]32CCCc3sc(N)c(C#N)c32)n1)[C@@H]1CCCN1C [II-205]
pIC50 (NCI-H358 cells; [2]): 7.74 | pIC50 (LOVO cells): 7.66

CNC1CCN(c2cc(O[C@@H](C)[C@@H]3CCCN3C)nc(-c3noc4c3CCC[C@@]43CCCc4sc(N)c(C#N)c43)n2)CC1 [II-214]
solubility at 24 h [1, 3]: > 121 µg/mL | solubility at 24 h [1, 4]: > 151 µg/mL
